Values quoted from earlier work in US6670356B2, “Analogs of galanthamine and lycoramine as modulators of nicotinic receptors” (priority 1999, dated 2003).

What was measured:
[1] = biological target: cholinesterase
[2] = tested on: gastrocnemius
[3] = tested on: superior cervical ganglion; settings: cat
[4] = tested on: nicotinic receptors of PC12 cells

For CN(C)C(=O)Oc1cccc([N+](C)(C)C)c1 [neostigmine], the “IC 50 for cholinesterase inhibition, times lower than for galanthamine” value ([1]; rat brain, erythrocytes, or gastrocnemius homogenate) is listed as ~200 times lower.

In the case of COc1ccc2c3c1O[C@H]1C[C@@H](O)C=C[C@@]31CCN(C)C2 [galanthamine], the “Twitch potentiating effects relative to neostigmine or physostigmine” value ([2]; nerve muscle preparation, quoted from the cited authors' discussion) is given as 1/10, the “Twitch potentiation relative to neostigmine or physostigmine” value ([2]; quoted from the cited authors) is given as 1/10 and the “Anticholinesterase activity relative to neostigmine or physostigmine” value ([1]; quoted from the cited authors' discussion) is given as 1/100. The “Preservation of the ganglionic surface potential” value ([3]; direct recordings, treated ganglia) was “preservation of the surface potential is shown”, the “Inhibition of hexamethonium (C6) induced ganglionic blockade” value ([3]; intra-arterially, 250 micrograms) was “substantially inhibited” and the “Mode of action at nicotinic receptors” value ([4]; PC12 cells) was “noncompetitive agonists”. The “Single channel activity after incubation with FK1 (competitive monoclonal antibody to physostigmine)” value ([4]; PC12 cells) was “neither physostigmine nor galanthamine could induce”, the Whole-cell currents evoked ([4]; PC12 cells) was “do not evoke sizable whole-cell currents” and the Channel activation ([4]; inside-out patches from PC 12 cells) was “cause some channel activation”.

In the case of COc1ccc2c3c1O[C@H]1[C@@H](O)C=C[C@H]4[C@@H](C2)N(C)CC[C@@]341 [codeine], the Whole-cell currents evoked ([4]; PC12 cells) is given as “do not evoke sizable whole-cell currents”.
